Laboratory results: patent publication US20250235413A1, “MODIFIED FORMS OF AMBROXOL FOR THERAPEUTIC USE” (Zywie, LLC, priority 2021, published 2025)

Columns and labels:
[1] = Metabolic stability in human liver microsomes; format: in vitro ADME; conditions: human liver microsomes 1 mg/mL protein, 1 μM compound, 37° C., NADPH-regenerating system; for half-life at 1 μM: 0-120 min, read-out: In vitro elimination half-life t1/2; for microsomal CLint at 1 μM: read-out: In vitro intrinsic clearance CLint-microsomes
Experimental: Study design—Test compounds (ambroxol and deuterated analogs) were dissolved in dimethylsulfoxide (DMSO) to prepare 1 mM stock solutions. The compounds were added to preparations of human liver microsomes (200 μL per incubation at a 1 mg/mL protein concentration) such that the final compound concentration was 1 μM. The samples were incubated at 37° C. in the presence of a reduced nicotinamide adenine dinucleotide phosphate (NADPH)-regenerating system (NADP, 1 mM, pH 7.4; glucose-6-phosphate, 5 mM, pH 7.4; glucose-6-phosphate dehydrogenase, 1 unit/mL)). A positive control (midazolam, 1 μM, 0.1 mg/mL protein) was incubated concurrently to ensure the microsome preparation was performing as expected. Samples were obtained at t=0, 30, 60, and 120 min and quenched by addition of acetonitrile.
Quenched samples were analyzed by liquid chromatography coupled to tandem mass spectrometry detection (LC/MS-MS). The concentration of the test compounds at each time point were converted to percent remaining relative to the concentration of the compound at time t=0 (which serves as the 100% value). All data points were included in data processing. The rate constant of elimination (kel, min^−1) of each test compound was determined from the time course of disappearance of the parent compound based on fitting the experimental data to a single exponential decay formula (At=Aoe^−kelt, where At is the % remaining at time t, Ao is 100%, kel is the elimination rate constant, and t is time). The in vitro half-life (t1/2) was determined from kel based on the formula: t1/2=ln(2)/kel. The rate constant of elimination was also used to calculate the in vitro intrinsic clearance CLint-microsomes (μL/min/mg protein).

male BDF1 mice = assay: Lifespan study in mice fed compound in chow; format: in vivo, mouse; conditions: 50 mg/kg daily as chow supplement, vs control (FIG. 3)
Experimental: Group 1 represents control animals that were not administered ambroxol; and Group 2 represents animals administered 50 mg/kg (body weight) of ambroxol daily as a chow supplement, starting at 2 months of age.
Weaned male BDF1 mice raised from pups, housed 1-4 animals per cage and fed Teklad 7013 NIH-31 rodent chow and water ad libitum, at 2 months of age, are divided into two roughly equal groups of 22-25 animals. One group continues to be fed the Teklad chow as before (control); the other group is switched to Teklad chow formulated with compound 2 at 300 mg per kg of chow. This formulation was designed, based on the average ad libitum chow consumption of an adult male BDF1 mouse, to deliver 50 mg/kg/day (based on body mass) to each mouse in the treated group. Mice are maintained on this diet until they die naturally or until they reach 16 months of age, at which time the experiment ends. During the course of the experiment, all mice are periodically removed from their cages and handled in the course of subjecting them to various sensorimotor, cognitive, and/or behavioral tests.
Group 1 represents control animals that were not administered ambroxol; Group 2 represents animals administered 50 mg/kg of ambroxol daily as a chow supplement, starting at 2 months of age.

mice = assay: Cognitive acuity test (novel place recognition) in mice at 7 months; format: in vivo, mouse
Source text: This is a cognitive test to measure short-term working memory, involving recognition of a familiar object found in an unfamiliar place (see Magen et al., Eur J Neurosci 35:870-882, 2012; Magen and Chesselet, J Parkinson's Disease 1:217-227, 2011). A Discrimination Index (DI)=(tnovel−tfamiliar)/(tnovel+tfamiliar) was used to assess the time spent exploring near the object in a novel place (“tnovel”) vs. the total exploration time overall. Discrimination Index scores greater than zero are considered to indicate good place recognition memory.
Three groups of mice, with at least 13 mice in each group, are given a cognitive acuity test at 7 months. The three groups of mice are: “High Dose” Group (150 mg/kg/day of compound 2), “Low Dose” (50 mg/kg/day of compound 2) Group, and a Control Group (no compound 2).
The dosage results are substantially lower than doses previously observed to effectively promote GCase chaperoning activity in mice (e.g., Migdalska-Richards et al., Ann Neurol 80:766-775, 2016).

| Structure (SMILES) | half-life at 1 μM [1] | microsomal CLint at 1 μM [1] | Lifespan (male BDF1 mice; starting at 2 months of age) | Healthspan (health of surviving animals when sacrificed) (male BDF1 mice) | Cognitive acuity, Low Dose Group (mice; 50 mg/kg/day) | Cognitive acuity, High Dose Group (mice; 150 mg/kg/day) | Cognitive acuity (mice; High Dose and Low Dose vs Control (FIG. 4)) |
| --- | --- | --- | --- | --- | --- | --- | --- |
| [2H]C([2H])(N[C@H]1CC[C@H](O)CC1)c1cc(Br)cc(Br)c1N [ZW-001] | 1.65 h | 7 µL/min/mg | – | – | – | – | – |
| Nc1c(Br)cc(Br)cc1CN[C@H]1CC[C@H](O)CC1 [ambroxol, trans-4-((2-amino-3,5-dibromobenzyl)amino)cyclohexanol] | 1.01 h | 11.4 µL/min/mg | able to increase lifespan | healthspan was extended | results in between the Control Group and the “High Dose” Group | best cognitive acuity results | dose-related improvement |
